The source of these data is US11685747B2, “Compounds that inhibit MCL-1 protein” (AMGEN INC., priority 2014, dated 2023).

One assay relates to OPM-2. Description: Cell viability assay (OPM-2 10 FBS, CellTiter-Glo). Format: cell-based, human. The settings on record: OPM-2 cells. The protocol:
Cell Viability Assay (OPM-2 10 FBS)
Cells were seeded into 384-well plates at 3000 cells/well density in complete growth medium containing 10% FBS, and incubated for 16 h with serially diluted test compounds in a 37° C. incubator with 5% CO2. Cell viability was tested using CellTiter-Glo® assay (Promega, Madison, Wis.) according to the manufacturer recommendations. Luminescence was determined using an EnVision® Multilabel plate reader 25 min after the addition of detection reagent. IC50 values were then calculated with Xlfit using a logistical 4-parameter fit model in GraphPad Prism (GraphPad Software, San Diego, Calif.) or in Genedata Screener® (Genedata, Basel, Switzerland).

The next assay has as its target T1, recombinant human Mcl-1 (Homo sapiens, UniProt Q07820).
T1 construct: C-terminally 6×His tagged Mcl-1 containing residues 171-327; made in house
As to the kind of experiment: Cell free Mcl-1:Bim affinity assay (Mcl-1 HTRF, TR-FRET). The settings on record: inhibition of Mcl-1/Bim interaction. Format: binding. The protocol: Cell Free Mcl-1:Bim Affinity Assay (Mcl-1 HTRF)
The inhibition of the Mcl-1/Bim interaction was measured using a time-resolved fluorescence resonance energy transfer (TR-FRET) assay. […] A biotinylated peptide derived from human Bim (residues 51-76) was purchased from CPC Scientific (San Jose, Calif.). The TR-FRET assay was conducted in a 384-well white OptiPlate™ (PerkinElmer, Waltham, Mass.) in a total volume of 40 μL. […] The reaction plates were further incubated overnight and then were read on an Envision® multimode reader (PerkinElmer). […] The IC50 values of test compounds were determined from duplicate data by analyzing competition curves using a four-parameter sigmoidal model in GraphPad Prism (GraphPad Software, San Diego, Calif.) or in Genedata Screener® (Genedata, Basel, Switzerland).

Assay [1] concerns the target T2, Mcl-1/Bak protein-protein interactions (Homo sapiens, UniProt Q07820).
T2 construct: expressed in transfected cells; host or cells: HEK 293 M cells, transient transfection
As to the kind of experiment: Cell-based split luciferase complementation assay. To be noted: HEK 293 M cells, serum-free, 4 h. The protocol: Cell-Based Assay (Split Luciferase)
A split luciferase complementation assay was developed to determine the inhibition of Mcl-1/Bak protein-protein interactions in cells. […] Transient transfection was performed using Lipofectamine® LTX/Plus™ reagent (Life Technologies, Grand Island, N.Y.). 24 h after transfection, cells were collected using non-enzyme based cell dissociation buffer StemPro® Accutase® (Life Technologies), and resuspended in serum-free Opti-MEM® (Life Technologies). Cells were then seeded into assay plates with serially diluted test compounds in 0.3% DMSO at density of a 5000 cells/well. Cells were then incubated for 4 h at 37° C. in a cell culture incubator supplement with 5% CO2. Test plates were equilibrated to room temperate for 30 min before addition of 30 μL Steady-Glo® Luciferase assay reagent (Promega, Madison, Wis.) into each test well. Luminescence was determined using an EnVision® Multilabel plate reader 25 min after the addition of detection reagent. IC50 values were then calculated with Xlfit using a logistical 4-parameter fit model in GraphPad Prism (GraphPad Software, San Diego, Calif.) or in Genedata Screener® (Genedata, Basel, Switzerland).

T1 sequence (Q07820 171-327): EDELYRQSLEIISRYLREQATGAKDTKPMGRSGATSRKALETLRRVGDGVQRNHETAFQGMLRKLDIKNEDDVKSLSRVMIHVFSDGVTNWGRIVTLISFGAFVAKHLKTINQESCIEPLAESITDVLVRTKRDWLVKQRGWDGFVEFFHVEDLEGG
T2 sequence (Q07820 whole entry): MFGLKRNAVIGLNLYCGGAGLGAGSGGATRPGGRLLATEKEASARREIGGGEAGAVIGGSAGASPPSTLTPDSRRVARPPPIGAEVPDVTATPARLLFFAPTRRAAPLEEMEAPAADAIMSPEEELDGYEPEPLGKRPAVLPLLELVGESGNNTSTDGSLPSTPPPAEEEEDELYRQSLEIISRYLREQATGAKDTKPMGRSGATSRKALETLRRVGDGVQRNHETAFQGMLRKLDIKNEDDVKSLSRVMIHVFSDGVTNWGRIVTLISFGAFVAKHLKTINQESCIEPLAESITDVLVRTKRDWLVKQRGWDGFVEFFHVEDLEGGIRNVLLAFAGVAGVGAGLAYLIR

The term IC50 denotes the point on the concentration scale where inhibition reaches its midpoint. For the compound `C[C@H]1C/C=C/[C@H](O)[C@@H]2CC[C@H]2CN2C[C@@]3(CCCc4cc(Cl)ccc43)COc3ccc(cc32)C(=O)NS(=O)(=O)[C@@H]1C1CC1` (single isomer, unassigned) [Example 47], the IC50 worked out at 284 nM in the assay with OPM-2 (16 h), 0.248 nM on recombinant human Mcl-1 and 60 nM in assay [1].

For `CC[C@@H]1CC/C=C/[C@H](OC)[C@@H]2CC[C@H]2CN2C[C@@]3(CCCc4cc(Cl)ccc43)COc3ccc(cc32)C(=O)NS1(=O)=O` [Example 20, (1S,3′R,6′R,7′S,8′E,12′R)-6-Chloro-12′-Ethyl-7′-Methoxy-3,4-Dihydro-2H,15′H-Spiro[Naphthalene-1,22′-[20]Oxa[13]Thia[1,14]Diazatetracyclo[14.7.2.0^3,6.0^19,24]Pentacos A[8,16,18,24]Tetraen]-15′-One 13′,13′-Dioxide], the IC50 is 390 nM in the assay on OPM-2 (Homo sapiens, OPM-2, 16 h); 0.647 nM at recombinant human Mcl-1; 50.4 nM in assay [1].

Turning to `CO[C@H]1CCCC[C@@H](C)S(=O)(=O)NC(=O)c2ccc3c(c2)N(C[C@@H]2CC[C@H]21)C[C@@]1(CCCc2cc(Cl)ccc21)CO3` [Example 16, (1S,3′R,6′R,7′S,12′R)-6-Chloro-7′-Methoxy-12′-Methyl-3,4-Dihydro-2H,15′H-Spiro[Naphthalene-1,22′-[20]Oxa[13]Thia[1,14]Diazatetracyclo[14.7.2.0^3,6.0^19,24]Pentacos A[16,18,24]Trien]-15′-One 13′,13′-Dioxide], the IC50 in the assay on OPM-2 (Homo sapiens, OPM-2, 16 h) turned out to be 4340 nM; at recombinant human Mcl-1, 2.08 nM; in assay [1] it was 107 nM.

Consider `COCCO[C@H]1/C=C/C[C@@H](C)[C@@H](C(C)C)S(=O)(=O)NC(=O)c2ccc3c(c2)N(C[C@@H]2CC[C@H]21)C[C@@]1(CCCc2cc(Cl)ccc21)CO3` [Example 54, (1S,3′R,6′R,7′S,8′E,11′R,12′R)-6-Chloro-7′-(2-Methoxyethoxy)-11′-Methyl-12′-(1-Methylethyl)-3,4-Dihydro-2H,15′H-Spiro[Naphthalene-1,22′-[20]Oxa[13]Thia[1,14]Diazatetracyclo[14.7.2.0^3,6.0^19,24]Pentacosa[8,16,18,24]Tetraen]-15′-One 13′,13′-Dioxide], for which the IC50 was found to be 131 nM with OPM-2 (Homo sapiens, OPM-2, 16 h); 0.153 nM at recombinant human Mcl-1; 29.1 nM in assay [1].

With `C[C@H]1C/C=C/[C@H](O)[C@@H]2CC[C@H]2CN2C[C@@]3(CCCc4cc(Cl)ccc43)COc3ccc(cc32)C(=O)NS(=O)(=O)[C@@H]1CC1CC1` (single isomer, unassigned) [Example 59], the 50% inhibitory concentration (IC50) is 247 nM in the assay on OPM-2 (16 h), 0.492 nM at recombinant human Mcl-1 and 61.5 nM in assay [1].

`C[C@@H]1C/C=C/[C@H](O)[C@@H]2CC[C@H]2CN2C[C@@]3(CCCc4cc(Cl)ccc43)COc3ccc(cc32)C(=O)NS(=O)(=O)C1` (single isomer, unassigned) [Example 30]: the IC50 in the assay on OPM-2 (16 h) was 161 nM; at recombinant human Mcl-1, 0.38 nM; in assay [1], 26.5 nM.

On to `C[C@H]1C/C=C/[C@H](O)[C@@H]2CC[C@H]2CN2C[C@@]3(CCCc4cc(Cl)ccc43)COc3ccc(cc32)C(=O)NS(=O)(=O)C1` (single isomer, unassigned) [Example 29], for which the IC50 in the assay with OPM-2 (16 h) stood at 5580 nM; at recombinant human Mcl-1, 9.44 nM; in assay [1], 458 nM.

`COCCO[C@H]1/C=C/CC[C@@H](C)S(=O)(=O)NC(=O)c2ccc3c(c2)N(C[C@@H]2CC[C@H]21)C[C@@]1(CCCc2cc(Cl)ccc21)CO3` [Example 76, (1S,3′R,6′R,7′S,8′E,12′R)-6-Chloro-7′-(2-Methoxyethoxy)-12′-Methyl-3,4-Dihydro-2H,15′H-Spiro[Naphthalene-1,22′-[20]Oxa[13]Thia[1,14]Diazatetracyclo[14.7.2.0^3,6.0^19,24]Pentacos A[8,16,18,24]Tetraen]-15′-One 13′,13′-Dioxide]: the IC50 in the assay with OPM-2 (Homo sapiens, OPM-2, 16 h) amounted to 668 nM; at recombinant human Mcl-1, 1.12 nM; in assay [1], 77.3 nM.

Take `O=C1NS(=O)(=O)CCCCC[C@H](O)[C@@H]2CC[C@H]2CN2C[C@@]3(CCCc4cc(Cl)ccc43)COc3ccc1cc32` [Example 10, (1S,3′R,6′R,7′S)-6-Chloro-7′-Hydroxy-3,4-Dihydro-2H,15′Hspiro[Naphthalene-1,22′[20]Oxa[13]Thia[1,14]Diazatetracyclo[14.7.2.0^3,6.0^19,24]Penta Cosa[16,18,24]Trien]-15′-One 13′,13′-Dioxide]: the IC50 in the assay on OPM-2 (Homo sapiens, OPM-2, 16 h) is 9410 nM; at recombinant human Mcl-1, 1.18 nM; in assay [1], 232 nM.

Regarding `CO[C@H]1/C=C/C[C@@H](C)[C@@H](C(C)C)S(=O)(=O)NC(=O)c2ccc3c(c2)N(C[C@@H]2CC[C@H]21)C[C@@]1(CCCc2cc(Cl)ccc21)CO3` [Example 53, (1S,3′R,6′R,7′S,8′E,11′R,12′R)-6-Chloro-7′-Methoxy-11′-Methyl-12′-(1-Methylethyl)-3,4-Dihydro-2H,15′H-Spiro[Naphthalene-1,22′-[20]Oxa[13]Thia[1,14]Diazatetracyclo[14.7.2.0^3,6.0^19,24]Pentacosa[8,16,18,24]Tetraen]-15′-One 13′,13′-Dioxide], the IC50 in the assay with OPM-2 (Homo sapiens, OPM-2, 16 h) was determined as 328 nM; at recombinant human Mcl-1, 1.39 nM; in assay [1], 51.4 nM.

Take `CCC[C@@H]1[C@@H](C)C/C=C/[C@H](O)[C@@H]2CC[C@H]2CN2C[C@@]3(CCCc4cc(Cl)ccc43)COc3ccc(cc32)C(=O)NS1(=O)=O` (single isomer, unassigned) [Example 68]: the IC50 with OPM-2 (16 h) was 179 nM; on recombinant human Mcl-1 it was 0.501 nM; in assay [1], 16.4 nM.

Take `C[C@H]1C/C=C/[C@H](O)[C@@H]2CC[C@H]2CN2C[C@@]3(CCCc4cc(Cl)ccc43)COc3ccc(cc32)C(=O)NS(=O)(=O)[C@@H]1C1CC1` (single isomer, unassigned) [Example 46]: the IC50 came to 334 nM in the assay on OPM-2 (16 h), 0.728 nM on recombinant human Mcl-1 and 78.3 nM in assay [1].

Take `CO[C@H]1/C=C/C[C@H](C)CS(=O)(=O)NC(=O)c2ccc3c(c2)N(C[C@@H]2CC[C@H]21)C[C@@]1(CCCc2cc(Cl)ccc21)CO3` (single isomer, unassigned) [Example 31]: the IC50 turned out to be 3560 nM in the assay on OPM-2 (16 h), 5.8 nM on recombinant human Mcl-1 and 543 nM in assay [1].

As for `COCCO[C@H]1/C=C/C[C@@H](C)CS(=O)(=O)NC(=O)c2ccc3c(c2)N(C[C@@H]2CC[C@H]21)C[C@@]1(CCCc2cc(Cl)ccc21)CO3` (single isomer, unassigned) [Example 77], the IC50 in the assay with OPM-2 (16 h) is 3160 nM; on recombinant human Mcl-1 it was 6.12 nM; in assay [1] it was 260 nM.

Turning to `CC1(C)CC/C=C\[C@H](O)[C@@H]2CC[C@H]2CN2C[C@@]3(CCCc4cc(Cl)ccc43)COc3ccc(cc32)C(=O)NS1(=O)=O` (single isomer, unassigned) [Example 41], the IC50 worked out at 4750 nM in the assay with OPM-2 (Homo sapiens, OPM-2, 16 h); 4.42 nM on recombinant human Mcl-1; 128 nM in assay [1].

As for `CC(C)[C@@H]1[C@H](C)C/C=C/[C@H](O)[C@@H]2CC[C@H]2CN2C[C@@]3(CCCc4cc(Cl)ccc43)COc3ccc(cc32)C(=O)NS1(=O)=O` (single isomer, unassigned) [Example 50], the results for the IC50 (in the assay with OPM-2 (16 h); on recombinant human Mcl-1; in assay [1]) were 1320 nM, 1.01 nM and 232 nM, respectively.

As to `CC[C@@H]1CCCC[C@H](OC)[C@@H]2CC[C@H]2CN2C[C@@]3(CCCc4cc(Cl)ccc43)COc3ccc(cc32)C(=O)NS1(=O)=O` [Example 21, (1S,3′R,6′R,7′S,12′R)-6-Chloro-12′-Ethyl-7′-Methoxy-3,4-Dihydro-2H,15′H-Spiro[Naphthalene-1,22′-[20]Oxa[13]Thia[1,14]Diazatetracyclo[14.7.2.0^3,6.0^19,24]Pentacos A[16,18,24]Trien]-15′-One 13′,13′-Dioxide], the IC50 with OPM-2 (Homo sapiens, OPM-2, 16 h) turned out to be 4170 nM; at recombinant human Mcl-1, 2.78 nM; in assay [1] it was 192 nM.

Regarding `C[C@@H]1[C@@H](C)CCC[C@H](O)[C@@H]2CC[C@H]2CN2C[C@@]3(CCCc4cc(Cl)ccc43)COc3ccc(cc32)C(=O)NS1(=O)=O` [Example 6, (1S,3′R,6′R,7′S,11′S,12′R)-6-Chloro-7′-Hydroxy-11′,12′-Dimethyl-3,4-Dihydro-2H,15′H-Spiro[Naphthalene-1,22′-[20]Oxa[13]Thia[1,14]Diazatetracyclo[14.7.2.0^3,6.0^19,24]Pentacos A[16,18,24]Trien]-15′-One 13′,13′-Dioxide], the IC50 in the assay with OPM-2 (Homo sapiens, OPM-2, 16 h) stood at 394 nM; on recombinant human Mcl-1, 0.447 nM; in assay [1], 57.5 nM.
